Nine molecules from ChEMBL document CHEMBL1782032, “New aromatic substituted pyrazoles as selective inhibitors of human adipocyte fatty acid-binding protein” (Bioorg Med Chem Lett, 2011) can be followed below.

Test [1] relates to RAW264.7. Description: Antiinflammatory activity in […] RAW264.7 cells assessed as inhibition of lipopolysaccharide induced MCP-1/CCL2 mRNA expression by PCR. The format is functional, cell-based.
Test [2] concerns RAW264.7. Briefly: Antiinflammatory activity in […] RAW264.7 cells assessed as inhibition of lipopolysaccharide induced TNF-alpha mRNA expression by PCR. It is filed as functional, cell-based.
Test [3] deals with T1, Fatty acid-binding protein, adipocyte (Homo sapiens, UniProt P15090). Description: Displacement of fluorescent 1-anilinonapthalene 8-sulfonic acid from human a-FABP by fluorescence spectrophotometry.
Target sequence in this assay (P15090 whole entry): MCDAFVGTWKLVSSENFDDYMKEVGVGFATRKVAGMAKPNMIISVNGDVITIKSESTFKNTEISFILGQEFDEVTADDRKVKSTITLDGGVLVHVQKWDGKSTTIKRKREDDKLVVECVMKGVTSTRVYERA
Test [4] has as its target T2, Fatty acid-binding protein, heart (Homo sapiens, UniProt P05413). Briefly: Displacement of fluorescent 1-anilinonapthalene 8-sulfonic acid from human h-FABP by fluorescence spectrophotometry.
Target sequence in this assay (P05413 whole entry): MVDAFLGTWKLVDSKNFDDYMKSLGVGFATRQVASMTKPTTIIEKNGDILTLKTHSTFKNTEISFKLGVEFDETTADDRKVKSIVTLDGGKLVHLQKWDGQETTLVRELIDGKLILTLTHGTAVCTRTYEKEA
In test [5] the target is T2, Fatty acid-binding protein, heart. Briefly: Displacement of fluorescent 1-anilinonapthalene 8-sulfonic acid from human h-FABP at 10 uM by fluorescence spectrophotometry.
Target sequence in this assay (P05413 2-133 limits assumed): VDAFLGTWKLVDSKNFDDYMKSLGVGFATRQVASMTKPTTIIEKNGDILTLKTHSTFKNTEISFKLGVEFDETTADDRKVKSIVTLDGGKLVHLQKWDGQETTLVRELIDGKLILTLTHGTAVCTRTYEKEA
Test [6] concerns the target T1, Fatty acid-binding protein, adipocyte. Briefly: Displacement of fluorescent 1-anilinonapthalene 8-sulfonic acid from human a-FABP at 10 uM by fluorescence spectrophotometry.
Target sequence in this assay (P15090 2-132 limits assumed): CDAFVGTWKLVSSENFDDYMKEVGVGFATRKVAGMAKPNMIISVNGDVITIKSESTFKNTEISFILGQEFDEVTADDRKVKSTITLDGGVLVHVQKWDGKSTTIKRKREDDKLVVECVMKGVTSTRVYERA

The term Ki denotes a measure of affinity in units of concentration, obtained from inhibition or displacement.

Active and inactive are the calls of the source. The rule behind the calls is not given here.

Regarding `CCc1c(-c2ccccc2)c(-c2ccccc2)nn1-c1ccccc1-c1cccc(OCC(=O)O)c1`, the inhibition result with RAW264.7 [1] and in the test on RAW264.7 [2] was “Dose-dependent effect” each time.
`O=C(O)COc1cccc(-c2ccccc2-c2cc(-c3ccco3)n(-c3ccc(Cl)cc3)n2)c1`: the figures for the Ki in test [3] and in test [4] were 7 nM and 4.13 µM, respectively.
For `CCC(Oc1cccc(-c2ccccc2-c2cc(-c3cccs3)n(-c3ccc(Cl)cc3)n2)c1)C(=O)O` (configuration not stated), in that order: 6 nM and 3.72 µM.
`CCOC(=O)COc1cccc(-c2ccccc2-n2nc(-c3ccccc3)c(-c3ccccc3)c2CC)c1`: the result in test [5] and in test [6] was inactive.
For `O=C(O)COc1cccc(-c2ccccc2-c2cc(-c3ccccc3)n(-c3ccccc3)n2)c1`, the Ki came out at 32 nM in test [3] and 5.24 µM in test [4].
Take `CC(C)(Oc1cccc(-c2ccccc2-c2cc(-c3cccs3)n(-c3ccc(Cl)cc3)n2)c1)C(=O)O`: the Ki in test [3] is below 1 nM; in test [4], above 50 µM. Further, the inhibition result with RAW264.7 [1] and with RAW264.7 [2] was “Dose-dependent effect” each time.
Regarding `O=C(O)COc1cccc(-c2ccccc2-c2cc(-c3cccs3)n(-c3ccc(Cl)cc3)n2)c1`, the inhibition constant Ki in test [3] came out at 5 nM; in test [4], 4.24 µM.
With `CC(Oc1cccc(-c2ccccc2-c2cc(-c3cccs3)n(-c3ccc(Cl)cc3)n2)c1)C(=O)O` (configuration not stated), the results for the Ki in test [3] and in test [4] were below 1 nM and 2.27 µM, respectively. The inhibition result in the test on RAW264.7 [1] and with RAW264.7 [2] was “Dose-dependent effect” in each case.
Consider `O=C(O)COc1cccc(-c2ccccc2-c2cc(-c3ccccc3)n(-c3ccc(Cl)cc3)n2)c1`, for which the inhibitory constant (Ki) in test [3] is 13 nM; in test [4], 17 µM.
